According to patent publication US8906911B2, “Chemokine receptor antagonists” (AbbVie Inc., priority 2012, dated 2014):
Read-outs that look alike come from different tables or passages of the source.

How the values were obtained:
rat CCR2 = rat CCR2 (Rattus norvegicus (Rat), UniProt O55193); experiment: Inhibition of native agonist (rat MCP-1)-induced intracellular calcium release, calcium flux assay in CHO cells expressing rat CCR2 and Gα16; type: cell-based; conditions: read-out: rCCR2 Kb
How it was run: (§1)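 Compound added to Calcium 4 dye-loaded adherent cells (dye loading 60 min, 37° C., HEPES pH 7.4 buffer with probenecid), then agonist: human MCP-1 at 2 nM final for hCCR2B cells, rat MCP-1 at 4 nM final for rCCR2 cells. FLIPR fluorescence change gave IC50. Kb=IC50/(1+[agonist]/EC50). Final DMSO 0.25%.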

human CCR2B [1] = target: T1, human CCR2B (Homo sapiens (Human), UniProt P41597); experiment: Inhibition of [125I]-labeled MCP-1 binding to hCCR2B (radioligand binding in CHO cells); conditions: mean Ki; [125I]-MCP-1 50 pM; CHO cells expressing human CCR2B and Gα16
From the text: CHO cells expressing human CCR2B were generated as follows. cDNA for human CCR2B (cloned from human blood) was cloned into plasmid pcDNA3.1 (from Invitrogen). The resulting plasmids were separately transfected into CHO cells expressing human Gα16 (from Molecular Devices). […] CHO cells expressing rat CCR2 were generated as follows. cDNA for rat CCR2 (cloned from rat macrophage) was cloned into plasmid pEF-flag (from Chinese Academy of Science). The resulting plasmids were transfected into CHO cells expressing human Gα16 (from […]).
Inhibition of [^125I]-Labeled MCP-1 Binding to hCCR2B
Radioligand binding assays were performed in CHO cells expressing human CCR2B and Gα16 coupling protein. All compounds were dissolved in DMSO and assays run at a final DMSO concentration of 0.5% (v/v). [^125I]-labeled human MCP-1 was purchased from PerkinElmer. Unlabelled human MCP-1 was purchased from PeproTech.
Compounds were serially diluted in DMSO before diluting into assay buffer (25 mM HEPES, pH 7.4, 5 mM MgCl2, 1 mM CaCl2, 0.5% BSA) with cryo preserved CHO cells expressing human CCR2B and the Gα16 coupling protein (30×10^3/well) and [^125I]-MCP-1 (50 pM). The reaction was incubated at room temperature for 90 minutes before transferring to GF/C filter membrane (PerkinElmer) pre-treated with 0.3% polyethyleneimine for 2 hours at 4° C. The filter membrane was washed six times with ice cold wash buffer (25 mM HEPES, pH 7.4, 5 mM MgCl2, 1 mM CaCl2, 500 mM NaCl, 0.01% (m/v) azide), dried, and sealed in a RLB sample bag (Agilent Technologies) before adding 5.0 mL Microscint 20 to each bag. Membrane was counted on Microbeta counter where background binding was determined by the presence of 100 nM MCP-1 and control total binding was determined by addition of DMSO in place of the test compound. The radioactivity values (cpm) were used to calculate the percent inhibition at a given compound concentration and the data fit to a sigmoidal curve in a semi-log plot to determine IC50 values. The corresponding Ki value is calculated as follows:
Ki=IC50/(1+[radioligand]/Kd), where [radioligand] is the concentration of the label and Kd (dissociation constant) is determined in saturation experiment with different concentrations of labeled MCP-1.

human CCR2B [2] = target: T1, human CCR2B; experiment: Inhibition of native agonist (human MCP-1)-induced intracellular calcium release, calcium flux assay in CHO cells expressing human CCR2B and Gα16; type: cell-based; conditions: for IC50: read-out: hCCR2B IC50; for Kb: read-out: hCCR2B Kb
How it was run: as §1

CCR2 [3] = target: CCR2 (Rattus norvegicus (Rat), UniProt O55193); conditions: direct injection of MCP-1 in the spinal cord; cited from earlier work
CCR2 [4] = conditions: in vivo; cited from earlier work

T1 sequence (P41597 other isoform, or with tags, fused parts or gaps): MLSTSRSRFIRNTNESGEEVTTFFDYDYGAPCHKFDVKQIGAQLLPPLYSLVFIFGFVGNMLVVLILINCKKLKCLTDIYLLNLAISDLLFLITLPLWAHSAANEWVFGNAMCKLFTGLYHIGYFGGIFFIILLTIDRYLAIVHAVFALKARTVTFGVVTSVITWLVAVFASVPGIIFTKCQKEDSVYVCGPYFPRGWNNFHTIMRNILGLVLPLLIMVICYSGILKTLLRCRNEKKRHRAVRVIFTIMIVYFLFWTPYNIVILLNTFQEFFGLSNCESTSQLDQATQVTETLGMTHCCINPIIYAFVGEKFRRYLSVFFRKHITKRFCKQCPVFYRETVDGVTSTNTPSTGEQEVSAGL
rat CCR2, sequence (O55193 whole entry): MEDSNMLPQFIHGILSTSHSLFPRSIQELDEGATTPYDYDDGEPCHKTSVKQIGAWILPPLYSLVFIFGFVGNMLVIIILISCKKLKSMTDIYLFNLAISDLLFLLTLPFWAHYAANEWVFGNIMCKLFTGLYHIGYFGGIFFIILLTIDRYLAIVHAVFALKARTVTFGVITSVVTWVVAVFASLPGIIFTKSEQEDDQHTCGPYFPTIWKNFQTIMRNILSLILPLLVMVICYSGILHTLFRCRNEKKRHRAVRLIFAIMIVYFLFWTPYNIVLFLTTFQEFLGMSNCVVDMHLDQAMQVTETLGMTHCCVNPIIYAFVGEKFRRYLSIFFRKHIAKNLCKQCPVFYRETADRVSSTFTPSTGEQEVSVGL
CCR2 (Rattus norvegicus (Rat), UniProt O55193), sequence (O55193 whole entry): as above

SMILES	Kb (rat CCR2)	Ki (human CCR2B [1])	IC50 (human CCR2B [2])	Kb (human CCR2B [2])	IC50 (human CCR2B [2]; calcium flux, human MCP-1 2 nM)	MCP-1 induced pronociception (thermal hyperalgesia and mechanical allodynia) (CCR2 [3])	hyperalgesia induced by MCP-1 injection in the RVM (CCR2 [4])
N#Cc1ccc(C(F)(F)F)cc1N1C[C@@H]2C[C@H]1CN2C(=O)[C@@]12CCC[C@@H]1C[C@@H](N1CCC(c3ccccc3)CC1)C2 [Example 48, 2-[(1S,4S)-5-{[(2R,3aR,6aR)-2-(4-phenylpiperidin-1-yl)hexahydropentalen-3a(1H)-yl]carbonyl}-2,5-diazabicyclo[2.2.1]hept-2-yl]-4-(trifluoromethyl)benzonitrile]	17 nM	8 nM	51.8 nM	13 nM	–	–	–
O=C(N1C[C@@H]2C[C@H]1CN2c1cc(C(F)(F)F)ccn1)[C@@]12CCC[C@@H]1C[C@@H](N1CCC(c3ccccc3)CC1)C2 [Example 49, [(2R,3aR,6aR)-2-(4-phenylpiperidin-1-yl)hexahydropentalen-3a(1H)-yl]{(1S,4S)-5-[4-(trifluoromethyl)pyridin-2-yl]-2,5-diazabicyclo[2.2.1]hept-2-yl}methanone]	23 nM	15 nM	37 nM	9 nM	–	–	–
CO[C@@H]1COCC[C@@H]1N[C@@H]1C[C@H]2CCC[C@@]2(C(=O)N2C[C@@H]3C[C@H]2CN3c2cc(C(F)(F)F)ccc2C(F)(F)F)C1 [Example 50, 1,5-anhydro-3-{[(2R,3aR,6aR)-3a-({(1S,4S)-5-[2,5-bis(trifluoromethyl)phenyl]-2,5-diazabicyclo[2.2.1]hept-2-yl}carbonyl)octahydropentalen-2-yl]amino}-2,3-dideoxy-4-O-methyl-D-erythro-pentitol]	6 nM	78 nM	25.9 nM	6 nM	–	–	–
CO[C@@H]1COCC[C@@H]1N(C)[C@@H]1C[C@H]2CCC[C@@]2(C(=O)N2C[C@@H]3C[C@H]2CN3c2ccc(Cl)c(C(F)(F)F)c2)C1 [Example 51, 1,5-anhydro-3-{[(2R,3aR,6aR)-3a-({(1S,4S)-5-[4-chloro-3-(trifluoromethyl)phenyl]-2,5-diazabicyclo[2.2.1]hept-2-yl}carbonyl)octahydropentalen-2-yl](methyl)amino}-2,3-dideoxy-4-O-methyl-D-erythro-pentitol]	29 nM	21 nM	–	11 nM	43.3 nM	–	–
CO[C@@H]1COCC[C@@H]1N(C)[C@@H]1C[C@H]2CCC[C@@]2(C(=O)N2C[C@@H]3C[C@H]2CN3c2cc(C(F)(F)F)ccc2C(F)(F)F)C1 [Example 52, 1,5-anhydro-3-{[(2R,3aR,6aR)-3a-({(1S,4S)-5-[2,5-bis(trifluoromethyl)phenyl]-2,5-diazabicyclo[2.2.1]hept-2-yl}carbonyl)octahydropentalen-2-yl](methyl)amino}-2,3-dideoxy-4-O-methyl-D-erythro-pentitol]	38 nM	49 nM	83.9 nM	21 nM	–	–	–
CO[C@@H]1COCC[C@@H]1N(C)[C@@H]1C[C@H]2CCC[C@@]2(C(=O)N2C[C@@H]3C[C@H]2CN3c2cc(C(F)(F)F)ccc2C#N)C1 [Example 53, 1,5-anhydro-3-{[(2R,3aR,6aR)-3a-({(1S,4S)-5-[2-cyano-5-(trifluoromethyl)phenyl]-2,5-diazabicyclo[2.2.1]hept-2-yl}carbonyl)octahydropentalen-2-yl](methyl)amino}-2,3-dideoxy-4-O-methyl-D-erythro-pentitol]	26 nM	16 nM	47.9 nM	12 nM	–	–	–
CO[C@@H]1COCC[C@@H]1N(C)[C@@H]1C[C@H]2CCC[C@@]2(C(=O)N2C[C@@H]3C[C@H]2CN3c2ccc(C#N)c(C(F)(F)F)c2)C1 [Example 56, 1,5-anhydro-3-{[(2R,3aR,6aR)-3a-({(1S,4S)-5-[4-cyano-3-(trifluoromethyl)phenyl]-2,5-diazabicyclo[2.2.1]hept-2-yl}carbonyl)octahydropentalen-2-yl](methyl)amino}-2,3-dideoxy-4-O-methyl-D-erythro-pentitol]	9 nM	32 nM	–	11 nM	46 nM	–	–
CO[C@@H]1COCC[C@@H]1N[C@@H]1C[C@H]2CCC[C@@]2(C(=O)N2C[C@@H]3C[C@H]2CN3C(=O)OC(C)(C)C)C1 [Example 60, 1,5-anhydro-3-{[(2R,3aR,6aR)-3a-{[(1S,4S)-5-(tert-butoxycarbonyl)-2,5-diazabicyclo[2.2.1]hept-2-yl]carbonyl}octahydropentalen-2-yl]amino}-2,3-dideoxy-4-O-methyl-D-erythro-pentitol]	19 nM	552 nM	328 nM	81 nM	–	–	–
C[C@H]1COCC[C@@H]1N[C@@H]1C[C@H]2CCC[C@@]2(C(=O)N2C[C@@H]3C[C@H]2CN3c2cc(C(F)(F)F)ccn2)C1 [Example 61, [(2R,3aR,6aR)-2-{[(3R,4S)-3-methyltetrahydro-2H-pyran-4-yl]amino}hexahydropentalen-3a(1H)-yl]{(1S,4S)-5-[4-(trifluoromethyl)pyridin-2-yl]-2,5-diazabicyclo[2.2.1]hept-2-yl}methanone]	30 nM	69 nM	–	25 nM	100 nM	–	–
C[C@@H]1COCC[C@@H]1N[C@@H]1C[C@H]2CCC[C@@]2(C(=O)N2C[C@@H]3C[C@H]2CN3c2cc(C(F)(F)F)ccn2)C1 [Example 63, [(2R,3aR,6aR)-2-{[(3S,4S)-3-methyltetrahydro-2H-pyran-4-yl]amino}hexahydropentalen-3a(1H)-yl]{(1S,4S)-5-[4-(trifluoromethyl)pyridin-2-yl]-2,5-diazabicyclo[2.2.1]hept-2-yl}methanone]	6 nM	10 nM	–	4 nM	17.9 nM	–	–
C[C@@H]1COCC[C@H]1N[C@@H]1C[C@H]2CCC[C@@]2(C(=O)N2C[C@@H]3C[C@H]2CN3c2cc(C(F)(F)F)ccn2)C1 [Example 64, [(2R,3aR,6aR)-2-{[(3S,4R)-3-methyltetrahydro-2H-pyran-4-yl]amino}hexahydropentalen-3a(1H)-yl]{(1S,4S)-5-[4-(trifluoromethyl)pyridin-2-yl]-2,5-diazabicyclo[2.2.1]hept-2-yl}methanone]	9 nM	12 nM	–	4 nM	16.5 nM	–	–
CC[C@@H]1COCC[C@@H]1N[C@@H]1C[C@H]2CCC[C@@]2(C(=O)N2C[C@@H]3C[C@H]2CN3c2cc(C(F)(F)F)ccn2)C1 [Example 65, [(2R,3aR,6aR)-2-{[(3S,4S)-3-ethyltetrahydro-2H-pyran-4-yl]amino}hexahydropentalen-3a(1H)-yl]{(1S,4S)-5-[4-(trifluoromethyl)pyridin-2-yl]-2,5-diazabicyclo[2.2.1]hept-2-yl}methanone]	8 nM	6 nM	28 nM	7 nM	–	–	–
CC[C@@H]1COCC[C@H]1N[C@@H]1C[C@H]2CCC[C@@]2(C(=O)N2C[C@@H]3C[C@H]2CN3c2cc(C(F)(F)F)ccn2)C1 [Example 66, [(2R,3aR,6aR)-2-{[(3S,4R)-3-ethyltetrahydro-2H-pyran-4-yl]amino}hexahydropentalen-3a(1H)-yl]{(1S,4S)-5-[4-(trifluoromethyl)pyridin-2-yl]-2,5-diazabicyclo[2.2.1]hept-2-yl}methanone]	8 nM	13 nM	–	11 nM	45.8 nM	–	–
CCO[C@H]1CN(C2CCC(O)(c3ccc4c(c3)OCO4)CC2)C[C@@H]1NC(=O)CNC(=O)c1cccc(C(F)(F)F)c1 (stereo partly drawn) [INCB3344]	–	–	–	–	–	blocked	–
O=C1Nc2ccccc2C2(CCN(CCc3ccc(C(F)(F)F)cc3)CC2)O1 [RS102895]	–	–	–	–	–	–	reversed
